Experimental data from PubChem BioAssay (NCI).
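Interpolation was linear, between the two tested concentrations surrounding the appropriate level; five concentrations were tested over 48 hours in 96-well plates. The concentration for 50% growth inhibition is given as GI50. TGI: total growth inhibition.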

Columns and labels:
Test in all cases: growth of human tumour cells (NCI), 48 h
HCC-2998 colon = test system: HCC-2998 colon
RPMI-8226 leukemia = test system: RPMI-8226 leukemia
UACC-257 melanoma = test system: UACC-257 melanoma
RXF 393 renal = test system: RXF 393 renal
CCRF-CEM leukemia = test system: CCRF-CEM leukemia
NCI-H226 lung = test system: NCI-H226 lung
SK-MEL-5 melanoma = test system: SK-MEL-5 melanoma
HS 578T breast = test system: HS 578T breast
K-562 leukemia = test system: K-562 leukemia
LOX IMVI melanoma = test system: LOX IMVI melanoma
MDA-MB-468 breast = test system: MDA-MB-468 breast
COLO 205 colon = test system: COLO 205 colon
A498 renal = test system: A498 renal
U251 CNS = test system: U251 CNS
IGROV1 ovarian = test system: IGROV1 ovarian
SF-295 CNS = test system: SF-295 CNS
HCT-15 colon = test system: HCT-15 colon
NCI-H522 lung = test system: NCI-H522 lung
SF-539 CNS = test system: SF-539 CNS
SK-MEL-28 melanoma = test system: SK-MEL-28 melanoma
UACC-62 melanoma = test system: UACC-62 melanoma
EKVX NSCLC = test system: EKVX NSCLC
OVCAR-4 ovarian = test system: OVCAR-4 ovarian
T-47D breast = test system: T-47D breast
SF-268 CNS = test system: SF-268 CNS
OVCAR-8 ovarian = test system: OVCAR-8 ovarian
SK-OV-3 ovarian = test system: SK-OV-3 ovarian
M14 melanoma = test system: M14 melanoma
NCI-H460 lung = test system: NCI-H460 lung
786-0 renal = test system: 786-0 renal
HT29 colon = test system: HT29 colon
BT-549 breast = test system: BT-549 breast
HCT-116 colon = test system: HCT-116 colon
ACHN renal = test system: ACHN renal
SNB-75 CNS = test system: SNB-75 CNS
DU-145 prostate = test system: DU-145 prostate
A549 NSCLC = test system: A549 NSCLC
UO-31 renal = test system: UO-31 renal
PC-3 prostate = test system: PC-3 prostate
MCF7 breast = test system: MCF7 breast
OVCAR-5 ovarian = test system: OVCAR-5 ovarian
NCI-H23 lung = test system: NCI-H23 lung
HOP-62 NSCLC = test system: HOP-62 NSCLC
MDA-MB-231 breast = test system: MDA-MB-231 breast
TK-10 renal = test system: TK-10 renal
HL-60(TB) leukemia = test system: HL-60(TB) leukemia
HOP-92 NSCLC = test system: HOP-92 NSCLC
MALME-3M melanoma = test system: MALME-3M melanoma
KM12 colon = test system: KM12 colon
CAKI-1 renal = test system: CAKI-1 renal
SK-MEL-2 melanoma = test system: SK-MEL-2 melanoma
MOLT-4 leukemia = test system: MOLT-4 leukemia
MDA-MB-435 = test system: MDA-MB-435
SNB-19 CNS = test system: SNB-19 CNS
OVCAR-3 ovarian = test system: OVCAR-3 ovarian
SW-620 colon = test system: SW-620 colon
SN12C renal = test system: SN12C renal
SR leukemia = test system: SR leukemia

## COc1ccc([C@H]2C(C(=O)c3ccc(Cl)cc3)C3(N[C@@H]2c2ccccc2)C(=O)Nc2ccc(Cl)cc23)cc1 (stereo partly specified)
HCC-2998 colon
  GI50: 2.09 µM
  TGI: 8.15 µM
RPMI-8226 leukemia
  GI50: 3.62 µM
  TGI: 48 µM
UACC-257 melanoma
  GI50: 6.69 µM
  TGI: 18.6 µM
RXF 393 renal
  GI50: 2.93 µM
  TGI: 12 µM
CCRF-CEM leukemia
  GI50: 3.32 µM
  TGI: 25.1 µM
NCI-H226 lung
  GI50: 6.64 µM
  TGI: 14.8 µM
SK-MEL-5 melanoma
  GI50: 9.38 µM
  TGI: 17.9 µM
HS 578T breast
  GI50: 7.49 µM
  TGI: 24.9 µM
K-562 leukemia
  GI50: 2.31 µM
  TGI: 57.5 µM
LOX IMVI melanoma
  GI50: 2.75 µM
  TGI: 14 µM
MDA-MB-468 breast
  GI50: 7.07 µM
  TGI: 19.8 µM
COLO 205 colon
  GI50: 6.72 µM
  TGI: 14.5 µM
A498 renal
  GI50: 8.68 µM
  TGI: 22.4 µM
U251 CNS
  GI50: 5.5 µM
  TGI: 13 µM
IGROV1 ovarian
  GI50: 3.54 µM
  TGI: 13.7 µM
SF-295 CNS
  GI50: 3.08 µM
  TGI: 13.1 µM
HCT-15 colon
  GI50: 3.86 µM
  TGI: 12.7 µM
NCI-H522 lung
  GI50: 5.24 µM
  TGI: 14.3 µM
SF-539 CNS
  GI50: 7.28 µM
  TGI: 16.6 µM
SK-MEL-28 melanoma
  GI50: 6.47 µM
  TGI: 13.6 µM
UACC-62 melanoma
  GI50: 2.13 µM
  TGI: 9.36 µM
EKVX NSCLC
  GI50: 6.43 µM
  TGI: 30.7 µM
OVCAR-4 ovarian
  GI50: 5.77 µM
  TGI: 27.1 µM
T-47D breast
  GI50: 2.61 µM
  TGI: 13.4 µM
SF-268 CNS
  GI50: 3.21 µM
  TGI: 38 µM
OVCAR-8 ovarian
  GI50: 4.98 µM
  TGI: 14 µM
SK-OV-3 ovarian
  GI50: 11.5 µM
  TGI: 38.4 µM
M14 melanoma
  GI50: 2.99 µM
  TGI: 12.7 µM
NCI-H460 lung
  GI50: 2.5 µM
  TGI: 9.26 µM
786-0 renal
  GI50: 5.11 µM
  TGI: 20 µM
HT29 colon
  GI50: 2.2 µM
  TGI: 8.71 µM
BT-549 breast
  GI50: 6.91 µM
  TGI: 14.6 µM
HCT-116 colon
  GI50: 2.62 µM
  TGI: 10.5 µM
ACHN renal
  GI50: 2.32 µM
  TGI: 17.9 µM
SNB-75 CNS
  GI50: 2.82 µM
  TGI: 27.2 µM
DU-145 prostate
  GI50: 7.91 µM
  TGI: 27 µM
A549 NSCLC
  GI50: 2.4 µM
  TGI: 13.7 µM
UO-31 renal
  GI50: 1.74 µM
  TGI: 10.8 µM
PC-3 prostate
  GI50: 1.99 µM
  TGI: 10.6 µM
MCF7 breast
  GI50: 1.91 µM
  TGI: 13.1 µM
OVCAR-5 ovarian
  GI50: 6.48 µM
  TGI: 14.1 µM
NCI-H23 lung
  GI50: 6.19 µM
  TGI: 16.2 µM
HOP-62 NSCLC
  GI50: 6.75 µM
  TGI: 14.5 µM
MDA-MB-231 breast
  GI50: 4.87 µM
  TGI: 12.2 µM
TK-10 renal
  GI50: 7.42 µM
  TGI: 19.8 µM
HL-60(TB) leukemia
  GI50: 4.1 µM
  TGI: 22.2 µM
HOP-92 NSCLC
  GI50: 2.38 µM
  TGI: 10.7 µM
MALME-3M melanoma
  GI50: 8.38 µM
  TGI: 16.1 µM
KM12 colon
  GI50: 2.44 µM
  TGI: 12.8 µM
CAKI-1 renal
  GI50: 1.53 µM
  TGI: 15.1 µM
SK-MEL-2 melanoma
  GI50: 6.16 µM
  TGI: 13.4 µM
MOLT-4 leukemia
  GI50: 1.95 µM
  TGI: 56.6 µM
MDA-MB-435
  GI50: 4.02 µM
  TGI: 14.5 µM
SNB-19 CNS
  GI50: 6.5 µM
  TGI: 46.5 µM
OVCAR-3 ovarian
  GI50: 6.39 µM
  TGI: 23.1 µM
SW-620 colon
  GI50: 5.33 µM
  TGI: 21.5 µM
SN12C renal
  GI50: 3 µM
  TGI: 10.4 µM
SR leukemia
  GI50: 2.08 µM
  TGI: 20.5 µM
